“Also recorded” adds a separate entry of the source.
Experiments:
[1] = test system: β-lymphocytes (murine splenocytes) stimulated with lipopolysaccharide; experiment: In vitro blast-transformation of murine lymphocytes, LPS (β-lymphocyte mitogen), [3H]-thymidine; format: cell-based, mouse (CBA); conditions: for DNA synthesis at [^3 H]-thymidine [incorporated counts/min.]: LPS 0.1 μg/ml
Excerpt: The immune reactions in an organism begins with the division of lymphocytes. In vitro investigation of the lymphocyte blast-transformationreaction under the influence of mitogens makes it possible to use this model system to select chemically synthesized 2'-5'A3 analogues which suppress division of lymphocytes. Using Concanavalin A and lipopolysaccharide as mitogens, the effect of analogues on the division of T- and β-lymphocytes may be investigated.
CBA mice 8-10 weeks old were used for these experiments. A suspension of mouse splenocytes were obtained by gently teasing spleens with forceps. Lymphocytes cultivated in flat-bottomed 96-well plates (Linbro) in RPMI-1640 medium (Flow Lab.) were supplemented with 2 mM 1-glutamine, 10 μg/ml gentamicin, 10^-5 M 2-mercaptoethanol and 10% heat inactivated fetal calf serum (Flow Lab). Cultures were maintained in 5% CO2 at 37° C. One μCi of ^3 H-thymidine (Isotop®) was added to each well 4 hours before the end of the incubation period. Incorporation of ^3 H-thymidine into cellular DNA was determined by liquid scintillation counting using standard techniques. Oligoadenylate was added to the medium at the beginning of culturing to achieve the final concentration.
(Con A being a mitogen for T-lymphocytes and LPS being a mitogen for β-lymphocytes).

[2] = test system: interleukin-II; experiment: Immune system of monkeys: interleukin-II; format: in vivo, Macaque Rh. monkeys
Method: Immunosuppressive activity of the prototype 2'-5'A3 and two analogues (2'-5')A2 Ar-epoxy and (2'-5')A2 A^l-epoxy were investigated in monkeys. The experiments were performed on 4 year-old Macaque Rh. monkeys. The levels of the principal subpopulations of T-lymphocytes, IgA, IgG, IgM and the amount of α- and γ-interferon and interleukin II after administration (2'-5')olygoadenylate and its analogies at the concentration of 50 and 25 μg/kg of the body weight was investigated.
Serum levels of IgG, IgA, IgM were determined by radial immunodiffusion using antisera against human immunoglobulin A, M, G. The amount of interferon and interleukine-II were determined by the method of Lopez-Botet M. et al., 1982.

[3] = test system: T-helpers; experiment: T-helpers in monkeys after kidney transplantation; format: in vivo, Macaque Rh. monkeys; conditions: for T-helpers: 50 μg/kg IV, 2 days pre-op. 30
Method: (§1) FLOW CYTOFLUOROGRAFIC ANALYSIS OF LYMPHOCYTE SUBSETS
(§2) Blood samples (100 μl of whole blood) were placed into a 12×17 tube. To these cells 20 μl of purified monoclonal antibodies were added with specificity for human cytotoxic/suppressor cells anti-Leu-2a (CD8), human helper/inducer anti-Leu-3a (CD4) and FITC conjugated monoclonal antibodies with specificity for natural killer cells-anti-Leu11c (CD16) (Becton Dickinson, San Jose). After 30 minutes incubation on ice, the cells were washed once and 20 μl of goat-antimouse chain phycoerythrin (Sigma P1286) conjugate were added to the tube with anti-Leu-2a and anti-Leu-3a monoclonal antibodies.
(§3) After erythrocyte lysing with FACS lysing solution (Becton Dickinson, San Jose) the cells were analyzed on FACScan flow cytometer (Becton Dickinson, San Jose) with scatter gate set on lymphocyte fraction.
(§4) The experiments were performed on 4 year-old Macaque Rh. monkeys. Each cohort consisted of 3 animals. […] The results of the experiments were evaluated clinically: by the presence or absence of urination from the ureterocutaneostoma.
(§5) After intravenous anesthesia with Ketalar®, an extraperitoneal access to the left kidney was performed through layer by layer cuts to the left lumbar region. The kidney was excised from the surrounding tissues. A clamp was applied to the vessel limb; the artery, the vein and the ureter each were prepared for anastomosis separately. The kidney was excised and transferred for hypothermal conservation in Collins' solution.
(§6) The donor kidney was transplanted into the recipient. […] anastomosis was performed: the graft arteries and veins attached to the appropriate recipient kidney vessels through plastic tubes. The kidney having been resuscitated by in blood flow, acquired the normal color and turgor. Additional hemostasis in the wound was performed. Ureterocutaneostomy was performed, which was followed by applying layer-upon-layer sutures on the wound and its aseptic dressing.
(§7) The monkeys were narcotized by means of the intravenous anesthesia with Ketalar® and subjected to medial laparotomy from the xiphoid down to the pubic joint. Access to the left Kidney was made extraperitoneally. The kidney was teased from the surrounding tissues. A clamp was put on the vessel limb; the artery, the vein and the ureter were dressed separately; the kidney was cut and transferred for hypothermal conservation in Collins' solution.
The internal iliac artery and the external iliac vein were extracted extra-peritoneally, immobilized and prepared for anastomosis. The donor kidney was transferred to the recipient. Vessel anastomosis was performed: the graft arteries were anastomosed with the internal iliac artery according to the end-to-end method and the graft veins were anastomosed with the external iliac vein according to the end-to-side method. The kidney having been engaged in blood flow, acquired a normal color and turgor. Bleeding on the line of the arterial anastomosis was stopped by making additional sutures. Ureterocutaneostomy was performed. The abdominal cavity was lavaged with the solution of disodium carbenicillin. Layer-upon-layer sutures on the wound were applied. Aseptic dressing was performed.
During our experiments we have divided monkeys into two groups, three monkeys to each group. For the first group (2'-5')A2 Ar-epoxy was administered intravenously at concentration of 50 μg/kg two days before the operation and at the second, sixth, and twelfth day after the operation and then every sixth day. […] After transplantation kidney functions were restored within 10 hours.
The administration schedule of (2'-5')A2 Ar-epoxy was modified slightly for the second group of monkeys. The preparation was injected two days before the operation and every other day at a concentration of 50 μg/kg during the entire post-transplantation period. […] The number of T-helpers dropped correspondingly from 37% to 7%. […] During the entire postoperative period, this activity tendency continues.

[4] = test system: T-killers; experiment: T-killers in monkeys after kidney transplantation; format: in vivo, Macaque Rh. monkeys; conditions: second group, 50 μg/kg every other day
Method: as §1, §2, §3, §4
After intravenous anesthesia with Ketalar®, an extraperitoneal access to the left kidney was performed through layer by layer cuts to the left lumbar region. The kidney was excised from the surrounding tissues. […]

[5] = test system: transplanted kidney; experiment: Kidney cross-allotransplantation in monkeys: graft function; format: in vivo, Macaque Rh. monkeys
Method: as §4, §5, §6, §7
The internal iliac artery and the external iliac vein were extracted extra-peritoneally, immobilized and prepared for anastomosis. The donor kidney was transferred to the recipient. Vessel anastomosis was performed: the graft arteries were anastomosed with the internal iliac artery according to the end-to-end method and the graft veins were anastomosed with the external iliac vein according to the end-to-side method. The kidney having been engaged in blood flow, acquired a normal color and turgor. […]

Adenylyl (2'-5')adenylyl (2'-5')-9-(2,3-anhydro-β-D-ribofuranosyl) adenine disodium salt [(2'-5')A2 Ar-epoxy]
DNA synthesis at [^3 H]-thymidine [incorporated counts/min.] ([1]; 5 × 10^-6 M, control 27,133): 21,464 counts/min. | inhibition of lymphocyte blast-transformation, in words ([1]; LPS, β-lymphocytes): weaker effect of the division of β-lymphocytes | DNA synthesis at [^3 H]-thymidine [incorporated counts/min.] ([1]; Table 4, 5 × 10^-6 M, control 10,766): 7,665 counts/min. | DNA synthesis at [^3 H]-thymidine [incorporated counts/min.] ([1]; Table 4, 5 × 10^-7 M, control 10,766): 6,018 counts/min. | DNA synthesis at [^3 H]-thymidine [incorporated counts/min.] ([1]; Table 4, 5 × 10^-8 M, control 10,766): 4,767 counts/min. | DNA synthesis at [^3 H]-thymidine [incorporated counts/min.] ([1]; Table 4, 5 × 10^-9 M, control 10,766): 7,348 counts/min. | DNA synthesis at [^3 H]-thymidine [incorporated counts/min.] ([1]; Table 4, 5 × 10^-10 M, control 10,766): 672 counts/min. | DNA synthesis at [^3 H]-thymidine [incorporated counts/min.] ([1]; Table 5, 5 × 10^-6 M, control 5,513): 131 counts/min. | DNA synthesis at [^3 H]-thymidine [incorporated counts/min.] ([1]; Table 5, 5 × 10^-7 M, control 5,513): 292 counts/min. | DNA synthesis at [^3 H]-thymidine [incorporated counts/min.] ([1]; Table 5, 5 × 10^-8 M, control 5,513): 655 counts/min. | DNA synthesis at [^3 H]-thymidine [incorporated counts/min.] ([1]; Table 5, 5 × 10^-9 M, control 5,513): 3,342 counts/min. | DNA synthesis at [^3 H]-thymidine [incorporated counts/min.] ([1]; Table 5, 5 × 10^-10 M, control 5,513): 1,213 counts/min. | effect on interleukin-II production, in words ([2]; monkeys, single IV, two weeks): suppresses production of interleukin-II | Interleukin-II ([2]; single IV 25 μg/kg, day 0 (baseline)): 4 Units per 10,000 lymphocytes | Interleukin-II ([2]; single IV 25 μg/kg, day 1): 2 Units per 10,000 lymphocytes | Interleukin-II ([2]; single IV 25 μg/kg, day 2): 2 Units per 10,000 lymphocytes | Interleukin-II ([2]; single IV 25 μg/kg, day 12): 2 Units per 10,000 lymphocytes | Interleukin-II ([2]; single IV 25 μg/kg, day 21): 4 Units per 10,000 lymphocytes | Interleukin-II ([2]; single IV 50 μg/kg, day 0 (baseline)): 8 Units per 10,000 lymphocytes | Interleukin-II ([2]; single IV 50 μg/kg, day 1): 4 Units per 10,000 lymphocytes | Interleukin-II ([2]; single IV 50 μg/kg, day 2): 4 Units per 10,000 lymphocytes | Interleukin-II ([2]; single IV 50 μg/kg, day 12): 4 Units per 10,000 lymphocytes | Interleukin-II ([2]; single IV 50 μg/kg, day 21): 4 Units per 10,000 lymphocytes | T-helpers ([3]; day 1 post-op.): 8% | T-helpers ([3]; day 5 post-op.): 39.9% | T-helpers ([3]; day 8 post-op.): 32% | T-helpers ([3]; day 13 post-op.): 34.7% | T-helpers ([3]; day 18 post-op.): 14.5% | number of T-helpers ([3]; second group, 50 μg/kg every other day, 7 days after surgery, from 37%): 7% | T-killers, in words [4]: Analogous suppression effect | prevention of transplant rejection / kidney function, in words ([5]; 50 μg/kg IV, disodium salt): protects the transplant from rejection, and renews normal functioning of the transplanted kidney; also recorded: transplanted kidney resumes and maintains its normal functions; also recorded: effectively prevent the rejection | time to restoration of kidney function after transplantation ([5]; first group: 50 μg/kg IV 2 days pre-op., days 2, 6, 12, then every sixth day): ≤ 10 h | time to restoration of kidney function after transplantation ([5]; second group: 50 μg/kg 2 days pre-op. and every other day): ≤ 10 h

Source: patent US5571799A, “(2'-5') oligoadenylate analogues useful as inhibitors of host-v5.-graft response” (Basco, Ltd., priority 1994, dated 1996)
